Literature values as cited in patent US20220370529A1, “CANNABIS COMPOSITIONS AND RELATED METHODS” (Access Business Group International LLC, priority 2021, published 2022).

Assays:
[1] = test system: human keratinocytes (HaCaT cells); conditions: of 26 genes upregulated by TNF-α treatment
[2] = test system: human dermal fibroblast (HDF); conditions: HDF cells
[3] = with rapid metabolism or redistribution

Compound	partition coefficient (log P)	inflammatory related genes downregulated [1]	inhibitory effects on genes playing a role in inflammation and matrix remodeling, including IL-6 and MMP-9 ([2]; TNF-α treatment)	wound healing genes downregulated ([2]; of 16 genes upregulated by TNF-α treatment)	human pulmonary uptake [3]
C=C(C)[C@@H]1CCC(C)=C[C@H]1c1c(O)cc(CCCCC)cc1O [CBD, cannabidiol]	~6.3	15 genes	did not exhibit any inhibitory effects	11 genes	–
CC1=CC[C@H]2C[C@@H]1C2(C)C [α-Pinene, α-pinene]	–	–	–	–	~60%
